Target: T1, hRORγt (Homo sapiens, UniProt P51449)
T1 construct: expressed in transfected cells; host or cells: CHO-S (Chinese hamster ovary cells, Invitrogen R80007), transiently transfected with pM-hRORγt and pG5-luc
T1 sequence (P51449 1-497 isoform P51449-2): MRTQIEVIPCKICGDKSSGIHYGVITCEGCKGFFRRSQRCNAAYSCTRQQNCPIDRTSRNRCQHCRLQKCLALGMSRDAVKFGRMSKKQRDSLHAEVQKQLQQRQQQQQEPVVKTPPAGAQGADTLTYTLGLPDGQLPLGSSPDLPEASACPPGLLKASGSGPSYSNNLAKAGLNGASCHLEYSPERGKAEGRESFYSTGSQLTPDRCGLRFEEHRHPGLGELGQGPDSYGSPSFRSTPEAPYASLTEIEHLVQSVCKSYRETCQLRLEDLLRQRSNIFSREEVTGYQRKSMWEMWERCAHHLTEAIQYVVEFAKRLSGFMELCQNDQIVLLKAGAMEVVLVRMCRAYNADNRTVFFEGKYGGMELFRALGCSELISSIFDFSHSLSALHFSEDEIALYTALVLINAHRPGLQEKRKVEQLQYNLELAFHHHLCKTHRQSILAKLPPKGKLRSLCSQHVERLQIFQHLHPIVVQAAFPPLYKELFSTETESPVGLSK
Test: Luciferase assay (reporter gene, recombinant plasmid hRORγt)
Type: cell-based
Settings: CHO-S cells transfected with pM-hRORγt and pG5-luc; overnight culture with compound; ONE-Glo luciferase readout; read-out: RORgt EC50
Text: This assay method used luciferase as a reporter gene to detect the expression of cells transfected with a gene recombinant plasmid at gene transcription level, wherein the recombinant plasmid was constructed by the promoter of a target gene and a luciferase gene. The experiment was primarily related to the transfection of the recombinant plasmid hRORγt (“RORgt”).
I. Reagents and Materials:
1. Cells: Chinese hamster ovary cells (CHO—S, Invitrogen, Cat #R80007), suspension-cultured in CD-CHO culture medium containing 8 mM L-glutamine and 1×HT.
a) Luciferase reporter gene plasmid pG5-luc: reporter plasmid (Promega).
b) Target gene plasmid pM-hRORγt: human RORgamma.
4. Transfection reagent: TransIT-CHO transfection kit (Minis Bio Co.) containing Trans-It reagent and Mojo reagent (Minis, MIR2170).
7. Luciferase kit: (Promega ONE-Glo, 100 ml, Catalog #E6120): containing luciferase substrate (Coenzyme A, ATP and luciferin) and a reaction buffer.
II. Specific Experimental Steps
1. Cell seeding: 18 to 24 h before transfection, a 125 mL shake flask was charged with CHO—S cells having a concentration of 0.5×10^6 cells/mL to 0.6×10^6 cells/mL, and CD-CHO culture medium (the culture medium only contained L-glutamine and an HT supplement) was added thereto to a final volume of 18 mL. The shake flask was placed on a shaker, and the cells were passaged overnight under a condition of 120 rpm, 37° C. and 8% CO2.
2. Cell transfection: At this time, the cell concentration of the above-mentioned solution should be 1.2×10^6 cells/mL to 1.5×10^6 cells/mL. CD-CHO culture medium (containing L-glutamine and an HT supplement) was used for dilution until the cell concentration reached 1×10^6 cells/mL.
B. Preparation of transfection reagent (TransIT-CHO: Mojo: DNA complex), which was formulated immediately before transfection.
1. Trans-IT reagent was warmed to room temperature in advance and shaken to be uniformly mixed before use.
2. Preparation for DNA transfection: the following reagents were mixed in a 1.5 mL sterile centrifuge tube:
27 μg of luciferase reporter gene plasmid pG5-luc: 27 μL, 1 mg/mL solution,
0.75 μg of the expression plasmid of the target gene (pM-hRORγt, 7.5 μL, 0.1 mg/mL solution).
3. The following reagents were charged into a 15 mL sterile centrifuge tube:
83 μL of TransIT-CHO reagent
the DNA complex prepared in step 2
4. The mixture was mixed well and placed at room temperature for 5 min.
5. 13.9 μL of Mojo reagent was charged into a sterile centrifuge tube, mixed slightly, and placed at room temperature for 20 min to form a transfection complex.
1. A 125 mL shake flask was charged with the transfection complex prepared in step B dropwise while being shaken slowly.
2. The cells were cultured for 4 h in a shaker under a condition of 37° C. and 8% carbon dioxide.
3. After 4 h, the cells were transferred to a 50 mL sterile centrifuge tube, centrifuged at 1200 rpm for 4 min, and the supernatant was aspirated.
4. The cells were re-suspended in 6 mL of a freezing medium (CD-CHO, L-glutamine, HT supplement, and 10% DMSO), and the cell density should be 3×10^6 cells/ml at this time.
5. The mixture was dispensed into 12 tubes with 0.5 mL in each tube. The tubes were placed in a refrigerator at −80° C. to be slowly frozen overnight, and then were transferred into liquid nitrogen for long-term storage.
D. Luciferase activity assay (96-well flat plate)
1. The cells were thawed at 37° C.
2. The cells (1.5×10^6 cells/0.5 mL) were diluted with 2 mL of freshly formulated culture medium (CD-CHO, L-glutamine and an HT supplement) to a volume of 2.5 mL, and then were transferred to a 15 mL sterile centrifuge tube.
3. Cell counting: If the cells were completely viable, a concentration of 6×10^5 cells/mL should be achieved. […] If necessary, the cells were diluted with culture medium.
4. Cell seeding: 100 μl cells (4×10^4 cells) were added to each well.

Row | SMILES | EC50
1 | CCc1ccc2c(c1)CC[C@@H](C1CC1)N2S(=O)(=O)c1ccc(OCC2CCOCC2)c(CO)c1 | 3200 pM
2 | CCc1ccc2c(c1)CCC(C(C)C)N2S(=O)(=O)c1ccc(OCC2CCOCC2)c(CO)c1 (centres unmarked) | 12400 pM
3 | CC[C@@H]1CCc2cc(C(C)C)ccc2N1S(=O)(=O)c1ccc(OCC2CCOCC2)c(CO)c1 | 48000 pM
4 | CCc1ccc2c(c1)CCC(C(F)(F)F)N2S(=O)(=O)c1ccc(OCC2CCOCC2)c(CO)c1 (centres unmarked) | 23000 pM
5 | CCc1cc(F)c2c(c1)CC[C@H](C)N2S(=O)(=O)c1ccc(OCC2CCOCC2)c(CO)c1 | 151000 pM
6 | CC(C)c1ccc2c(c1)CCC(C1CC1)N2S(=O)(=O)c1ccc(OCC2CCOCC2)c(CO)c1 (centres unmarked) | 6600 pM
7 | CCc1ccc2c(c1)CCC(C)(C)N2S(=O)(=O)c1ccc(OCC2CCOCC2)c(CO)c1 | 310000 pM
8 | CCc1ccc2c(c1)CCC(CC)N2S(=O)(=O)c1ccc(OCC2CCOCC2)c(CO)n1 (centres unmarked) | 212000 pM
9 | CCc1ccc2c(c1)C(C)CN2S(=O)(=O)c1ccc(OCC2CCOCC2)c(CO)c1 (centres unmarked) | 1.4e+06 pM
10 | CC[C@@H]1CCc2cc(C3CCC3)ccc2N1S(=O)(=O)c1ccc(OCC2CCOCC2)c(CO)c1 | 5200 pM
11 | CCC1CCc2cc(C(F)(F)F)ccc2N1S(=O)(=O)c1ccc(OCC2CCOCC2)c(CO)c1 (centres unmarked) | 21100 pM
12 | CC1CCc2cc(C3CC3)ccc2N1S(=O)(=O)c1ccc(OCC2CCOCC2)c(CO)c1 (centres unmarked) | 20700 pM
13 | CCc1ccc2c(c1)CC(C)CN2S(=O)(=O)c1ccc(OCC2CCOCC2)c(CO)c1 (centres unmarked) | 36000 pM
14 | CC(C)c1ccc2c(c1)CCC(C)N2S(=O)(=O)c1ccc(OCC2CCOCC2)c(CO)c1 (centres unmarked) | 14900 pM
15 | CCc1ccc2c(c1)CC[C@H](CC)N2S(=O)(=O)c1ccc(OCC2CCOCC2)c(CO)c1 | 34900 pM
16 | CCc1ccc2c(c1)C(C)CCN2S(=O)(=O)c1ccc(OCC2CCOCC2)c(CO)c1 (centres unmarked) | 655000 pM
17 | CCC1CCc2cc(C(C)(C)C)ccc2N1S(=O)(=O)c1ccc(OCC2CCOCC2)c(CO)c1 (centres unmarked) | 70200 pM
18 | CCc1ccc2c(c1)CCC(C1CCC1)N2S(=O)(=O)c1ccc(OCC2CCOCC2)c(CO)c1 (centres unmarked) | 8100 pM
19 | CCc1ccc2c(c1)CCN2S(=O)(=O)c1ccc(OCC2CCOCC2)c(CO)c1 | 2.63e+06 pM
20 | CCc1ccc2c(c1)CCC(CC(C)C)N2S(=O)(=O)c1ccc(OCC2CCOCC2)c(CO)c1 (centres unmarked) | 21000 pM
21 | C[C@H]1CCc2cc(CC(F)(F)F)ccc2N1S(=O)(=O)c1ccc(OCC2CCOCC2)c(CO)c1 | 316000 pM
22 | CC1CCc2cc(C#N)ccc2N1S(=O)(=O)c1ccc(OCC2CCOCC2)c(CO)c1 (centres unmarked) | 689000 pM
23 | CCc1ccc2c(c1)CCC(CC)N2S(=O)(=O)c1ccc(C(CO)N2CCOCC2)c(CO)c1 (centres unmarked) | 3.12e+06 pM
24 | C[C@H]1CCc2cc(C(C)(F)F)ccc2N1S(=O)(=O)c1ccc(OCC2CCOCC2)c(CO)c1 | 181000 pM
25 | CC[C@@H]1CCc2cc(C(F)(F)F)ccc2N1S(=O)(=O)c1ccc(OCC2CCOCC2)c(CO)c1 | 5400 pM
26 | CCc1ccc2c(c1)CC(CC)CN2S(=O)(=O)c1ccc(OCC2CCOCC2)c(CO)c1 (centres unmarked) | 31600 pM
27 | CCc1ccc2c(c1)CCC(C1CC1)N2S(=O)(=O)c1ccc(OCC2CCOCC2)c(CO)c1 (centres unmarked) | 7000 pM
28 | CCc1ccc2c(c1F)CCC(CC)N2S(=O)(=O)c1ccc(OCC2CCOCC2)c(CO)c1 (centres unmarked) | 13600 pM
29 | Cc1cc(C)c2c(c1)CCC(C1CC1)N2S(=O)(=O)c1ccc(OCC2CCOCC2)c(CO)c1 (centres unmarked) | 18000 pM

Reference: patent US11396503B2, “Sulfonyl substituted bicyclic compound which acts as ROR inhibitor” (CHIA TAI TIANQING PHARMACEUTICAL GROUP CO., LTD, priority 2017, dated 2022)
